# Measured values: patent publication US8178506B2, “Oligomeric compounds and compositions for use in modulation of small non-coding RNAs” (Regulus Therapeutics Inc., priority 2003, dated 2012)
# Several values for one entry are separate records, joined by “and”; a condition that tells them apart may be missing. Equal entries are not always repeated. In the oligonucleotide strings, read from the 5' end, every base follows the letter of its sugar. An asterisk marks phosphorothioate; unmarked linkages are phosphodiester. Other units and linkages are bracketed, terminal groups are in braces. A string of capitals states the bases alone. e = 2'-O-(2-methoxyethyl) (MOE); [5mC] = 5-methylcytosine
# Columns and labels:
# HeLa cells = experiment: Cell cycle assay in HeLa cells; format: cell-based, human; details: HeLa cells
# PEPCK-c = PEPCK-c mRNA expression in HepG2 cells; format: cell-based, human; details: for PEPCK-c (% UTC): HepG2, 100 nM oligomeric compound
# [1] = 25 nM, 48 hours, percentage of cells in phase, average of replicates
# [2] = 50 nM, 48 hours, percentage of cells in phase, average of replicates
# [3] = 100 nM, 48 hours, percentage of cells in phase, average of replicates
# [4] = 150 nM oligomeric compound, 24 hours, relative to untreated control (UTC = 100)
# [5] = 150 nM oligomeric compound, 48 hours after treatment, relative to untreated control (UTC=100)
# [6] = 150 nM, 48 hours, relative to untreated control
# [7] = 150 nM, 48 hours, percentage of cells in phase, average of replicates
# [8] = Experiment 1, basal (no insulin)
# [9] = Experiment 2, 1 nM insulin treated
substance,measurement,setting,value
327905 (antisense e[5mC]*eA*eG*eA*e[5mC]*eT*e[5mC]*e[5mC]*eG*eG*eT*eG*eG*eA*eA*eT*eG*eA*eA*eG*eG*eA) [compound 327905],% cells in cell cycle phase: G2/M,"HeLa cells; 25 nM, 48 hours",18%
same,% cells in cell cycle phase: G1,HeLa cells; [1],57%
same,% cells in cell cycle phase: S,HeLa cells; [1],24%
same,% cells in cell cycle phase: aneuploid,HeLa cells; [1],12%
same,% cells in cell cycle phase: subG1,HeLa cells; [1],1.7%
same,% cells in cell cycle phase: G2/M,"HeLa cells; 50 nM, 48 hours",20%
same,% cells in cell cycle phase: G1,HeLa cells; [2],50%
same,% cells in cell cycle phase: S,HeLa cells; [2],30%
same,% cells in cell cycle phase: aneuploid,HeLa cells; [2],12%
same,% cells in cell cycle phase: subG1,HeLa cells; [2],2.1%
same,% cells in cell cycle phase: G2/M,"HeLa cells; 100 nM, 48 hours",24%
same,% cells in cell cycle phase: G1,HeLa cells; [3],46%
same,% cells in cell cycle phase: S,HeLa cells; [3],30%
same,% cells in cell cycle phase: aneuploid,HeLa cells; [3],14%
same,% cells in cell cycle phase: subG1,HeLa cells; [3],2.5%
same,% cells aneuploid,HeLa cells; [4],50% and 98%
same,% cells in cell cycle phase G1,HeLa cells; [4],99% and 94%
same,% cells in cell cycle phase G2/M,HeLa cells; [4],129% and 121%
same,% cells in cell cycle phase S,HeLa cells; [4],88% and 95%
same,% cells in cell cycle phase subG1,HeLa cells; [4],144% and 149%
same,% cells in cell cycle phase: G1,HeLa cells; [5],48% and 78%
same,% cells in cell cycle phase: G2/M,HeLa cells; [5],150% and 122%
same,% cells in cell cycle phase: S,HeLa cells; [5],194% and 143%
same,% cells in cell cycle phase: aneuploid,HeLa cells; [5],67% and 99%
same,% cells in cell cycle phase: G2/M,"HeLa cells; 150 nM, 48 hours",24%
same,% cells in cell cycle phase G1,HeLa cells; [6],108%
same,% cells in cell cycle phase G2/M,HeLa cells; [6],90%
same,% cells in cell cycle phase S,HeLa cells; [6],99%
same,% cells in cell cycle phase aneuploid,HeLa cells; [6],164%
same,% cells in cell cycle phase subG1,HeLa cells; [6],55%
same,% cells in cell cycle phase: G1,HeLa cells; [7],38%
same,% cells in cell cycle phase: S,HeLa cells; [7],38%
same,% cells in cell cycle phase: aneuploid,HeLa cells; [7],12%
same,% cells in cell cycle phase: subG1,HeLa cells; [7],4.5%
same,PEPCK-c (% UTC),PEPCK-c; [8],129 % UTC
same,PEPCK-c (% UTC),PEPCK-c; [9],147 % UTC
327933 (antisense eA*eA*eG*eG*eG*eA*eT*eT*e[5mC]*e[5mC]*eT*eG*eG*eG*eA*eA*eA*eA*e[5mC]*eT*eG*eG*eA*e[5mC]) [compound 327933],% cells aneuploid,HeLa cells; [4],92% and 47%
same,% cells in cell cycle phase G1,HeLa cells; [4],102% and 90%
same,% cells in cell cycle phase G2/M,HeLa cells; [4],131% and 140%
same,% cells in cell cycle phase S,HeLa cells; [4],83% and 91%
same,% cells in cell cycle phase subG1,HeLa cells; [4],192% and 190%
same,% cells in cell cycle phase: G1,HeLa cells; [5],76% and 80%
same,% cells in cell cycle phase: G2/M,HeLa cells; [5],138% and 123%
same,% cells in cell cycle phase: S,HeLa cells; [5],135% and 133%
same,% cells in cell cycle phase: aneuploid,HeLa cells; [5],86% and 75%
same,PEPCK-c (% UTC),PEPCK-c; [8],118 % UTC
same,PEPCK-c (% UTC),PEPCK-c; [9],115 % UTC
327919 (antisense eG*eA*eA*eA*e[5mC]*e[5mC]*e[5mC]*eA*eG*e[5mC]*eA*eG*eA*e[5mC]*eA*eA*eT*eG*eT*eA*eG*e[5mC]*eT) [compound 327919],% cells aneuploid,HeLa cells; [4],96%
same,% cells in cell cycle phase G1,HeLa cells; [4],92%
same,% cells in cell cycle phase G2/M,HeLa cells; [4],109%
same,% cells in cell cycle phase S,HeLa cells; [4],103%
same,% cells in cell cycle phase subG1,HeLa cells; [4],85%
same,% cells in cell cycle phase: G1,HeLa cells; [5],80%
same,% cells in cell cycle phase: G2/M,HeLa cells; [5],139%
same,% cells in cell cycle phase: S,HeLa cells; [5],122%
same,% cells in cell cycle phase: aneuploid,HeLa cells; [5],104%
same,% cells in cell cycle phase: subG1,HeLa cells; [5],104%
same,PEPCK-c (% UTC),PEPCK-c; [8],71 % UTC
same,PEPCK-c (% UTC),PEPCK-c; [9],105 % UTC
327876 (antisense eA*eA*e[5mC]*eA*e[5mC]*eT*eG*eA*eT*eT*eT*e[5mC]*eA*eA*eA*eT*eG*eG*eT*eG*e[5mC]*eT*eA) [compound 327876],% cells aneuploid,HeLa cells; [4],66% and 75%
same,% cells in cell cycle phase G1,HeLa cells; [4],98% and 93%
same,% cells in cell cycle phase G2/M,HeLa cells; [4],95% and 131%
same,% cells in cell cycle phase S,HeLa cells; [4],104% and 92%
same,% cells in cell cycle phase subG1,HeLa cells; [4],103% and 149%
same,% cells in cell cycle phase: G1,HeLa cells; [5],87% and 76%
same,% cells in cell cycle phase: G2/M,HeLa cells; [5],119% and 126%
same,% cells in cell cycle phase: S,HeLa cells; [5],120% and 141%
same,% cells in cell cycle phase: aneuploid,HeLa cells; [5],100% and 69%
same,PEPCK-c (% UTC),PEPCK-c; [8],119 % UTC
same,PEPCK-c (% UTC),PEPCK-c; [9],176 % UTC
327892 (antisense eA*e[5mC]*eT*eT*eT*e[5mC]*eG*eG*eT*eT*eA*eT*e[5mC]*eT*eA*eG*e[5mC]*eT*eT*eT*eA) [compound 327892],% cells aneuploid,HeLa cells; [4],80%
same,% cells in cell cycle phase G1,HeLa cells; [4],86%
same,% cells in cell cycle phase G2/M,HeLa cells; [4],103%
same,% cells in cell cycle phase S,HeLa cells; [4],111%
same,% cells in cell cycle phase subG1,HeLa cells; [4],153%
same,% cells in cell cycle phase: G1,HeLa cells; [5],74%
same,% cells in cell cycle phase: G2/M,HeLa cells; [5],129%
same,% cells in cell cycle phase: S,HeLa cells; [5],150%
same,% cells in cell cycle phase: aneuploid,HeLa cells; [5],79%
same,% cells in cell cycle phase: subG1,HeLa cells; [5],121%
same,PEPCK-c (% UTC),PEPCK-c; [8],75 % UTC
same,PEPCK-c (% UTC),PEPCK-c; [9],104 % UTC
327911 (antisense eG*e[5mC]*eT*eA*e[5mC]*e[5mC]*eT*eG*e[5mC]*eA*e[5mC]*eT*eG*eT*eA*eA*eG*e[5mC]*eA*e[5mC]*eT*eT*eT*eT) [compound 327911],% cells aneuploid,HeLa cells; [4],104%
same,% cells in cell cycle phase G1,HeLa cells; [4],130%
same,% cells in cell cycle phase G2/M,HeLa cells; [4],122%
same,% cells in cell cycle phase S,HeLa cells; [4],62%
same,% cells in cell cycle phase subG1,HeLa cells; [4],158%
same,% cells in cell cycle phase: G1,HeLa cells; [5],99%
same,% cells in cell cycle phase: G2/M,HeLa cells; [5],109%
same,% cells in cell cycle phase: S,HeLa cells; [5],96%
same,% cells in cell cycle phase: aneuploid,HeLa cells; [5],101%
same,% cells in cell cycle phase: subG1,HeLa cells; [5],65%
same,PEPCKc mRNA expression,"PEPCK-c; Experiment 2, insulin treated: HepG2 cells transfected with oligomeric compound, 1 nM insulin for four hours, UTC + 1 nM insulin = 100",78
same,PEPCKc mRNA,"PEPCK-c; HepG2 cells, Experiment 1, basal (no insulin), four hours, UTC = 100",52
